# US8961959B2, “Glucosylceramide synthase inhibitors and therapeutic methods using the same” (The Regents of the University of Michigan, priority 2011, dated 2015)
# Key:
# [1] = tested on: Sandhoff (Hexb−/−) mice; experiment: Juvenile Sandhoff (Hexb−/−) mice treated with compound 3h; format: in vivo, mouse; details: for Neutral Lipids GA2: p-15 Sandhoff mice; for Total Siatic Acid: Hexb −/− p-15, 60 mg/kg/day i.p. p-9 to p-15, resorcinol assay
# Procedure: The SV/129 Hexb−/− mice were obtained from the NIH. The mice were derived by the disruption of the murine Hexb gene and transferring this gene into the mouse genome via homologous recombination and embryonic stem cell technology as previously described (38). The genotypes of mice were determined by PCR as previously described. Mice were propagated and housed in plastic cages with filter tops containing Sani-Chip bedding (P.J. Murphy Forest Products Corp.; Montville, N.J.). Food and water were provided ad libitum. Nursing females were provided with cotton nesting pads for the duration of the experiment.
# The solution was dried under nitrogen, resuspended in 3.6 ml distilled H2O, then dissolved at 42° C. in a shaking water bath. The solution was neutralized by adding 400 μl of 10× phosphate buffer saline (PBS), and was sterilized following passage through an Acrodisc 0.2 μm syringe filter (Sigma, St. Louis, Mo.). […] The mice were weighed daily and received intraperitoneal (i.p.) injections equivalent to 60 mg/kg from postnatal day 9 (p-9) to postnatal day 15 (p-15). Control mice received i.p. injections of PBS. Injections were performed using a Hamilton syringe (26 gauge, point style 2, 0.5 inch needle) (Hamilton, Reno, Nev.), and volumes ranged from 50 ul to 100 μl/mouse. The mice were sacrificed 4 hrs after the final injection on p-15. Cerebrum, cerebellum, and liver were dissected and frozen on dry ice to determine wet weight. The tissues then were homogenized in 3.0 ml distilled H2O, and 150 μl of each homogenate was set aside for analysis of protein and lysosomal enzyme activities. The remaining homogenate was frozen at −80° C., lyophilized, then weighed before lipid extraction. […]
# Lipid extraction of lyophilized tissue was performed overnight in 5 ml CHCl3:CH3OH 1:1 (v/v). Samples were spun down at 2500 rpm for 20 min, and the supernatant was collected. Pellets were washed in 2 ml CHCl3:CH3OH 1:1 (v/v), spun down again, and the total 7 ml of supernatant was brought up to a final volume of 19.6 ml at a ratio of 30:60:8 CHCl3:CH3OH:dH2O (v/v/v).
# Neutral lipids and cholesterol were separated from acidic lipids and gangliosides by ion exchange chromatography as we described (32, 28, 24). The total lipid extract, suspended in CHCl3:CH3OH:dH2O, 30:60:8 by volume (solvent A), was applied to a DEAE Sephadex column (1.2 mL bed volume) that had been equilibrated prior with solvent A (28). The column was washed twice with 20 mL solvent A and the entire neutral lipid fraction, consisting of the initial eluent plus washes, was collected. This fraction contained cholesterol, phosphatidylcholine, phosphatidylethanolamine and plasmalogens, sphingomyelin, and neutral GSLs to include cerebrosides and asialo-GM2 (GA2). Next, acidic lipids were eluted from the column with 35 mL CHCl3:CH3OH:0.8 M Na acetate, 30:60:8 by volume. Gangliosides were separated from acidic phospholipids by Folch partitioning, base treated, and desalted as previously described (32, 28). Neutral lipids were dried by rotary evaporation and resuspended in 10 mL CHCl3:CH3OH (2:1; v/v). A 4 mL aliquot was evaporated under nitrogen, base treated with 1 N NaOH, and Folch partitioned. The Folch lower phase containing GA2 was evaporated under nitrogen and resuspended in 4 mL CHCl3:CH3OH (2:1; v/v).
# Total ganglioside content was quantified before and after desalting using the resorcinol assay as previously described (28). Sialic acid values were fit to a standard curve using n-acetylneuraminic acid as a standard.
# All lipids were analyzed qualitatively by high-performance thin-layer chromatography (HPTLC) according to previously described methods (28, 24, 25). Lipids were spotted on 10 cm×20 cm Silica gel 60 HPTLC plates (E. Merck, Darmstadt, Germany) using a Camag Linomat III auto-TLC spotter (Camag Scientific, Inc., Wilmington, N.C.). […]
# [2] = drug distribution studies; cited from earlier work
# [3] = Hexb −/− mice p-15, 60 mg/kg/day i.p. p-9 to p-15, mean ± SEM
# [4] = cerebellum, Hexb −/− p-15, 60 mg/kg/day
# [5] = cerebrum, Hexb −/− p-15, 60 mg/kg/day
# [6] = liver, Hexb −/− p-15, 60 mg/kg/day
structure (smiles),measurement,setting,value
"O=C(CC1Cc2ccccc2C1)N[C@H](CN1CCCC1)[C@H](O)c1ccc2c(c1)OCCO2 [Compound 3h, 2-(2,3-dihydro-1H-inden-2-yl)-N-((1R,2R)-1-(2,3-dihydrobenzo[b][1,4]dioxin-6-yl)-1-hydroxy-3-(pyrrolidin-1-yl)propan-2-yl)acetamide]",adverse effects on body weight over the treatment period,[1]; 60 mg/kg/day p-9 to p-15,no adverse effects
same,Neutral Lipids GA2,[1]; Cerebellum,0.55 ± 0.01 mg/100 mg dry weight
same,Neutral Lipids GA2,[1]; Cerebrum,0.51 ± 0.01 mg/100 mg dry weight
same,Body Weight,"[1]; Hexb −/− mice p-15, 60 mg/kg/day i.p. p-9 to p-15 (oxalate), mean ± SEM",9.0 ± 0.5 g
same,Water Content Cerebellum,[1]; [3],83.88 ± 0.01%
same,Water Content Cerebrum,[1]; [3],84.45 ± 0.01%
same,Wet Weight Cerebellum,[1]; [3],87.7 ± 7.7 mg
same,Wet Weight Cerebrum,[1]; [3],271.0 ± 2.3 mg
same,Neutral Lipids GA2,[1]; Liver,1.10 ± 0.05 mg/100 mg dry weight
same,reduction of GM2 content,[1]; cerebellum of Hexb −/− mice,53%
same,total sialic content lower than in control Hexb −/− mice,"[1]; cerebellum, 60 mg/kg/day p-9 to p-15",14%
same,G1a Concentration,[1]; [4],76.6 ± 3.7 micrograms of sialic acid per 100 mg dry weight
same,G1a Percent,[1]; [4],24.1 ± 0.3%
same,GD1b Concentration,[1]; [4],42.1 ± 2.0 micrograms of sialic acid per 100 mg dry weight
same,GD1b Percent,[1]; [4],24.1 ± 0.3%
same,GD3 Concentration,[1]; [4],9.8 ± 1.2 micrograms of sialic acid per 100 mg dry weight
same,GD3 Percent,[1]; [4],4.3 ± 0.2%
same,GM1 Concentration,[1]; [4],17.4 ± 1.4 micrograms of sialic acid per 100 mg dry weight
same,GM1 Percent,[1]; [4],5.5 ± 0.4%
same,GM2 Concentration,[1]; [4],9.8 ± 1.2 micrograms of sialic acid per 100 mg dry weight
same,GM2 Percent,[1]; [4],3.1 ± 0.1%
same,GQ1b Concentration,[1]; [4],41.3 ± 3.8 micrograms of sialic acid per 100 mg dry weight
same,GQ1b Percent,[1]; [4],12.9 ± 0.1%
same,GT1a/LD1 Concentration,[1]; [4],22.9 ± 1.0 micrograms of sialic acid per 100 mg dry weight
same,GT1a/LD1 Percent,[1]; [4],7.2 ± 0.1%
same,GT1b Concentration,[1]; [4],94.4 ± 3.9 micrograms of sialic acid per 100 mg dry weight
same,GT1b Percent,[1]; [4],29.7 ± 0.8%
same,Total Siatic Acid,"[1]; cerebellum, mean ± SEM",318 ± 15
same,reduction of GM2 content,[1]; cerebrum of Hexb −/− mice,52%
same,total sialic content lower than in control Hexb −/− mice,"[1]; cerebrum, 60 mg/kg/day p-9 to p-15",11%
same,G1a Concentration,[1]; [5],187.4 ± 5.2 micrograms of sialic acid per 100 mg dry weight
same,G1a Percent,[1]; [5],43.4 ± 0.3%
same,GD1b Concentration,[1]; [5],31.7 ± 0.5 micrograms of sialic acid per 100 mg dry weight
same,GD1b Percent,[1]; [5],7.3 ± 0.1%
same,GM1 Concentration,[1]; [5],26.4 ± 1.6 micrograms of sialic acid per 100 mg dry weight
same,GM1 Percent,[1]; [5],6.1 ± 0.2%
same,GM2 Concentration,[1]; [5],87.7 ± 7.7 micrograms of sialic acid per 100 mg dry weight
same,GM2 Percent,[1]; [5],2.8 ± 0.1%
same,GQ1b Concentration,[1]; [5],33.3 ± 0.7 micrograms of sialic acid per 100 mg dry weight
same,GQ1b Percent,[1]; [5],7.7 ± 0.1%
same,GT1a/LD1 Concentration,[1]; [5],20.8 ± 0.7 micrograms of sialic acid per 100 mg dry weight
same,GT1a/LD1 Percent,[1]; [5],4.8 ± 0.3%
same,GT1b Concentration,[1]; [5],119.8 ± 3.3 micrograms of sialic acid per 100 mg dry weight
same,GT1b Percent,[1]; [5],27.8 ± 0.1%
same,Total Siatic Acid,"[1]; cerebrum, mean ± SEM",432 ± 11
same,body weight versus control Hexb −/− mice,[1]; in words,slightly higher
same,reduction of NGNA-GM2 content,"[1]; liver, versus PBS-treated Hexb −/− controls",45%
same,total sialic content lower than in control Hexb −/− mice,"[1]; liver, 60 mg/kg/day p-9 to p-15",38%
same,G1a Concentration,[1]; [6],12.2 ± 0.3 micrograms of sialic acid per 100 mg dry weight
same,G1a Percent,[1]; [6],17.6 ± 1.1%
same,GM1 Concentration,[1]; [6],15.4 ± 2.1 micrograms of sialic acid per 100 mg dry weight
same,GM1 Percent,[1]; [6],21.9 ± 1.5%
same,GM2 Concentration,[1]; [6],42.1 ± 2.6 micrograms of sialic acid per 100 mg dry weight
same,GM2 Percent,[1]; [6],60.5 ± 1.3%
same,Total Siatic Acid,"[1]; liver, mean ± SEM",70 ± 5
same,reduction of GA2 in Hexb −/− liver,[1]; p=0.06,not significant
"CCCCCCCC(=O)N[C@H](CN1CCCC1)[C@H](O)c1ccc2c(c1)OCCO2 [Compound 3a, N-((1R,2R)-1-(2,3-dihydrobenzo-[b][1,4]dioxin-6-yl)-1-hydroxy-3-(pyrrolidin-1-yl)propan-2-yl)octanamide, reference compound]",transport across the blood brain barrier,[2],not transported across the blood brain barrier
